≈ marks a conversion by molar mass, not a printed value. Like-named read-outs stand apart in the source and are kept apart here.

Assay [1] deals with S. aureus cells. Nature of the assay: Membrane potential of intact cells by DisC3. Format: cell-based.
Assay [2] deals with T1, NdhC (Staphylococcus aureus, UniProt Q2YWP9). The assay can be described thus: Inhibition of purified NdhC NADH dehydrogenase activity with DMN in detergent. In kind it is biochemical, S. aureus. Conditions: read-out: % of Inhibition by 50 μM phenothiazines, NdhC, DMN.
The test system of assay [3] is S. aureus. Conditions: cited from earlier work.
Assay [4] has as its system S. aureus. Nature of the assay: Drug susceptibility determination. In kind it is cell-based. Conditions: Staphylococcus aureus, 20 h.
For assay [5], the system named is inverted membrane vesicles from E. coli. In kind it is biochemical.
Assay [6] has the same test system. Format: biochemical. Conditions: NADH-energized vesicles.
Assay [7] addresses T2, NdhF (Staphylococcus aureus, UniProt Q2FZW0). Nature of the assay: biochemical. Conditions: read-out: % of Inhibition by 50 μM phenothiazines, NdhF, Q8.
In assay [8] the target is T1, NdhC. The assay can be described thus: biochemical. Also on record: species or system S. aureus. To be noted: read-out: % of Inhibition by 50 μM phenothiazines, NdhC, Q8.
For assay [9], the system named is S. aureus membranes. Nature of the assay: NADH-driven respiration. Conditions: for Inhibition of NADH-dependent oxygen consumption: 50 μM compound, membranes ∼ 200 μg/ml. Format: biochemical.
Assay [10] concerns the target T2, NdhF. Nature of the assay: biochemical. Conditions: read-out: % of Inhibition by 50 μM phenothiazines, NdhF, DMN.
Assay [11] concerns isolated rat liver mitochondria. To be noted: cited from earlier work.
[12] abbreviates: control agents, Figure S5, concentration not given.
The mark [13] stands for this setting: Figure 5 legend, concentration not given.

T1 sequence (Q2YWP9 whole entry): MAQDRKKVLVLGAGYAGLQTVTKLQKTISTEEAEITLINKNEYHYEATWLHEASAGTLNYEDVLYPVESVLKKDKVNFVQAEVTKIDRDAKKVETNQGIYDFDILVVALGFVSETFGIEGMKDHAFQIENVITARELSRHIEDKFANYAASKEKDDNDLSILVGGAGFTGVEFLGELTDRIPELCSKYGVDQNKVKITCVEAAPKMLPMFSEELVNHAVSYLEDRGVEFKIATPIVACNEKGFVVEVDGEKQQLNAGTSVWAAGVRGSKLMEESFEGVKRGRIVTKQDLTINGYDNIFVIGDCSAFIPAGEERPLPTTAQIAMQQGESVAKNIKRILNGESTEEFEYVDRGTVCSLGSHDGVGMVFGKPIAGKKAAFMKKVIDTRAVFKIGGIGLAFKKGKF

On to `N#CC(C#N)=NNc1cccc(Cl)c1` [CCCP], for which the “Effect on membrane potential (DisC3(5) fluorescence)” value in assay [1] (1 μM CCCP, validation control) is on record as “rapid collapse of the membrane potential”.

As a reminder, the inhibition is the relative decrease from the control value, in per cent. Broadly, the MIC is the least concentration at which growth counts as inhibited. For the compound `CN(C)CCCN1c2ccccc2Sc2ccc(Cl)cc21` [CPZ, Chlorpromazine], in assay [2], the inhibition at 50 µM worked out at 73 ± 8%. In assay [3], the “reported MIC values for inhibition of growth” value is 90 to 125 µM. The MIC in assay [4] was 170 ± 15 µM (≈ 54.2 µg/mL).

Turning to `C(=NC1CCCCC1)=NC1CCCCC1` [DCCD], the “Effect on pH gradient (ACMA fluorescence)” value (from here on “Effect on pH gradient”) in assay [5] (setting [12]) was “collapse of the pH gradient”.

Regarding `CC(C)(C)c1cc(C=C(C#N)C#N)cc(C(C)(C)C)c1O` [SF6847], the “Effect on pH gradient” value in assay [5] (setting [12]) was “collapse of the pH gradient”. Further, in assay [6] (setting [13]), the “Effect on membrane potential (Oxonol VI fluorescence)” value is on record as “dissipation of the membrane potential”.

As for `CN1CCN(CCCN2c3ccccc3Sc3ccc(C(F)(F)F)cc32)CC1` [TPZ, Trifluoperazine], the inhibition at 50 µM in [7] was determined as 0%; in [8], 80 ± 10%; in assay [2], 54 ± 6%; in assay [10], 0%. For the same compound, in assay [9] (50 μM TPZ, uninhibited activity 659 ± 28), the “NADH-driven respiration in presence of 50 μM TPZ” value is given as 8 ± 1 μmole O2 mg^-1 protein s^-1. The “Inhibition of NADH-dependent oxygen consumption” value in assay [9] is “fully inhibited”. Further, in assay [9] (read-out: IC50, respiration of S. aureus membranes, NADH as electron donor), the IC50 came out at 18.5 ± 3 µM. The “reported MIC values for inhibition of growth” value in assay [3] is 40 to 60 µM. This compound had a minimum inhibitory concentration (MIC) in assay [4] of 70 ± 10 µM (≈ 28.5 µg/mL).

Consider `CSc1ccc2c(c1)N(CCC1CCCCN1C)c1ccccc1S2` (stereo not shown) [TZ, Thioridazine], for which the “Effect on membrane potential (DisC3(5) fluorescence)” value was “rapid collapse of the membrane potential” in [1] (50 μM TZ) and “collapse of the membrane potential” in assay [1] (different TZ concentrations, immediate, concentration-dependent (Figure 3A)). Further, in assay [9], the “Inhibition of NADH-dependent oxygen consumption” value is “fully inhibited”. The “Effect on pH gradient” value in assay [5] (3 μM TZ, gradient generated by the ATPase or by succinate-driven respiration) is “completely collapse the pH gradient”. For the same compound, the “Effect on membrane potential (Oxonol VI fluorescence)” value in assay [6] (10 μM TZ) is recorded as “completely dissipated”; in assay [6] (setting [13]) it was “dissipation of the membrane potential”. Further, the “reported MIC values for inhibition of growth” value in [3] was 40 to 60 µM. Further, the MIC in [4] came out at 70 ± 9 µM (≈ 25.9 µg/mL). In assay [11], the Uncoupler activity entry is “weak uncoupler of oxidative phosphorylation”.

Source of the values: PMC4047164 (Biochimica et biophysica acta, 2014).
